# Measurements published in patent US8044073B2, “Aminobenzimidazoles and benzimidazoles as inhibitors of respiratory syncytial virus replication” (Tibotec Pharmaceuticals, priority 2003, dated 2011).
# Test system: Respiratory Syncytial Virus
# Assay: In vitro screening for activity against RSV (tetrazolium-based colorimetric assay, protection against viral cytopathology)
# Assay type: cell-based
# Conditions: Table 6; numeric activity values, pEC50 (−log of EC50 in molar units)
# Excerpt: The percent protection against cytopathology caused by viruses (antiviral activity or EC50) achieved by tested compounds and their cytotoxicity (CC50) are both calculated from dose-response curves. The selectivity of the antiviral effect is represented by the selectivity index (SI), calculated by dividing the CC50 (cytotoxic dose for 50% of the cells) by the EC50 (antiviral activity for 50% of the cells). The tables in the above experimental part list the category to which each of the prepared compounds belong: Compounds belonging to activity category “A” have a pEC50 (−log of EC50 when expressed in molar units) equal to or more than 7. Compounds belonging to activity category “B” have a pEC50 value between 6 and 7.
# Automated tetrazolium-based colorimetric assays were used for determination of EC50 and CC50 of test compounds. Flat-bottom, 96-well plastic microtiter trays were filled with 180 μl of Eagle's Basal Medium, supplemented with 5% FCS (0% for FLU) and 20 mM Hepes buffer. Subsequently, stock solutions (7.8× final test concentration) of compounds were added in 45 μl volumes to a series of triplicate wells so as to allow simultaneous evaluation of their effects on virus- and mock-infected cells. Five five-fold dilutions were made directly in the microtiter trays using a robot system. Untreated virus controls, and HeLa cell controls were included in each test. Approximately 100 TCID50 of Respiratory Syncytial Virus was added to two of the three rows in a volume of 50 μl. The same volume of medium was added to the third row to measure the cytotoxicity of the compounds at the same concentrations as those used to measure the antiviral activity. After two hours of incubation, a suspension (4×10^5 cells/ml) of HeLa cells was added to all wells in a volume of 50 μl. The cultures were incubated at 37° C. in a 5% CO2 atmosphere. Seven days after infection the cytotoxicity and the antiviral activity was examined spectrophotometrically. To each well of the microtiter tray, 25 μl of a solution of MTT (3-(4,5-dimethylthiazol-2-yl)-2,5-diphenyltetrazolium bromide) was added. The trays were further incubated at 37° C. for 2 hours, after which the medium was removed from each cup. Solubilization of the formazan crystals was achieved by adding 100 μl 2-propanol. Complete dissolution of the formazan crystals were obtained after the trays have been placed on a plate shaker for 10 min. Finally, the absorbances were read in an eight-channel computer-controlled photometer (Multiskan MCC, Flow Laboratories) at two wavelengths (540 and 690 nm). The absorbance measured at 690 nm was automatically subtracted from the absorbance at 540 nm, so as to eliminate the effects of non-specific absorption.
# The percent protection against cytopathology caused by viruses (antiviral activity or EC50) achieved by tested compounds and their cytotoxicity (CC50) were both calculated from dose-response curves. The selectivity of the antiviral effect is represented by the selectivity index (SI), calculated by dividing the CC50 (cytotoxic dose for 50% of the cells) by the EC50 (antiviral activity for 50% of the cells).
row,Structure (SMILES),Activity
1,Cc1cccc(C(=O)Nc2ccc3c(c2)ncn3Cc2nc(C)ccc2O)c1 [Compound 242],4.2
2,Cc1ccc(O)c(Cn2cnc3cc(CNCCc4cccn4C)ccc32)n1 [Compound 243],4.2
3,Cc1ccc(O)c(Cn2cnc3cc(NC(=O)Cc4ccccc4)ccc32)n1 [Compound 244],4.2
4,Cc1ccc(O)c(Cn2cnc3cc(NC(=O)C4CCN(CCN)CC4)ccc32)n1 [Compound 245],4.2
5,Cc1ccc(O)c(Cn2cnc3cc(CO)ccc32)n1 [Compound 246],<4.0
6,Cc1ccc(O)c(Cn2cnc3ccc(CO)cc32)n1 [Compound 247],<4.0
7,Cc1ccc(O)c(Cn2cnc3cc(C=Cc4ccccc4)ccc32)n1 [Compound 249],<4.0
8,Cc1ccc(O)c(Cn2cnc3cc(CCc4ccccc4)ccc32)n1 [Compound 250],<4.0
9,Cc1ccc(O)c(Cn2cnc3cc(C=CC#N)ccc32)n1 [Compound 252],<4.0
10,Cc1ccc(O)c(Cn2cnc3cc(CNCCc4ccccc4)ccc32)n1 [Compound 253],<4.0
11,Cc1ccc(O)c(Cn2cnc3cc(CNCCN(C)C)ccc32)n1 [Compound 255],<4.0
12,Cc1ccc(O)c(Cn2cnc3cc(CNCCCN4CCOCC4)ccc32)n1.Cl [Compound 258],<4.0
13,COCCCNCc1ccc2c(c1)ncn2Cc1nc(C)ccc1O [Compound 260],<4.0
14,Cc1ccc(O)c(Cn2cnc3cc(CNC4CCNCC4)ccc32)n1.Cl [Compound 262],<4.0
15,Cc1cccc(NCc2ccc3c(c2)ncn3Cc2nc(C)ccc2O)c1 [Compound 265],<4.0
16,Cc1ccc(O)c(Cn2cnc3cc(NC(=O)c4ccccc4)ccc32)n1 [Compound 266],<4.0
17,Cc1ccc(O)c(Cn2cnc3cc(NC(=O)C4CCNCC4)ccc32)n1 [Compound 267],<4.0
18,COCCNCc1ccc2c(c1)ncn2Cc1nc(C)ccc1O [Compound 269],<4.0
19,Cc1ccc(O)c(Cn2cnc3cc(CNCc4ccncc4)ccc32)n1 [Compound 270],<4.0
20,Cc1ccc(O)c(Cn2cnc3cc(CNCc4ccco4)ccc32)n1 [Compound 271],<4.0
21,Cc1ccc(O)c(Cn2cnc3cc(CNCCCc4ccccc4)ccc32)n1 [Compound 272],<4.0

row,Structure (SMILES),Activity
1,Cc1ccc(O)c(Cn2cnc3cc(C(O)c4ccccc4)ccc32)n1.O=C(O)C(=O)O (stereo not drawn) [Compound 274],<4.0
2,Cc1ccc(O)c(Cn2cnc3ccc(NC(=O)Cc4ccccn4)cc32)n1 [Compound 276],<4.0
3,Cc1ccc(O)c(Cn2cnc3ccc(NC(=O)CCc4ccccc4)cc32)n1 [Compound 277],<4.0
4,Cc1ccc(O)c(Cn2cnc3ccc(NC(=O)c4cccnc4)cc32)n1 [Compound 278],<4.0
5,Cc1ccc(O)c(Cn2cnc3cc(NC(=O)c4cccnc4)ccc32)n1 [Compound 279],<4.0
6,Cc1ccc(O)c(Cn2cnc3cc(NC(=O)CCc4ccccc4)ccc32)n1 [Compound 280],<4.0
7,Cc1ccc(O)c(Cn2cnc3cc(NC(=O)Cc4ccccn4)ccc32)n1 [Compound 281],<4.0
8,CC(=O)c1cccc(NCc2ccc3ncn(Cc4nc(C)ccc4O)c3c2)c1 [Compound 282],<4.0
9,Cc1ccc(O)c(Cn2cnc3ccc(CNc4cccc(C)c4C)cc32)n1 [Compound 284],<4.0
10,Cc1ccc(O)c(Cn2cnc3ccc(CNc4ccccc4)cc32)n1 [Compound 285],<4.0
11,CC(=O)c1cccc(NCc2ccc3c(c2)ncn3Cc2nc(C)ccc2O)c1 [Compound 286],<4.0
12,Cc1ccc(O)c(Cn2cnc3cc(CNc4cccc(Br)c4)ccc32)n1 [Compound 287],<4.0
13,Cc1ccc(O)c(Cn2cnc3cc(CNc4cccc(Cl)c4)ccc32)n1 [Compound 288],<4.0
14,Cc1cc(C)cc(NCc2ccc3c(c2)ncn3Cc2nc(C)ccc2O)c1 [Compound 289],<4.0
15,Cc1ccc(O)c(Cn2cnc3cc(CNc4cc(Cl)cc(Cl)c4)ccc32)n1 [Compound 290],<4.0
16,Cc1ccc(O)c(Cn2cnc3cc(CNc4cccc5cccnc45)ccc32)n1 [Compound 291],<4.0
17,Cc1ccc(O)c(Cn2cnc3cc(CNc4cccc(C#N)c4)ccc32)n1 [Compound 292],<4.0
18,Cc1ccc(O)c(Cn2cnc3cc(CNc4cccc(F)c4)ccc32)n1 [Compound 293],<4.0
19,CCc1cccc(NCc2ccc3c(c2)ncn3Cc2nc(C)ccc2O)c1 [Compound 294],<4.0
20,Cc1ccc(O)c(Cn2cnc3cc(CNc4cccc(C)c4C)ccc32)n1 [Compound 295],<4.0
21,Cc1ccc(O)c(Cn2cnc3cc(CNc4ccccc4)ccc32)n1 [Compound 296],<4.0

# Same assay, conditions: human respiratory syncytial virus, 168 h; Table 1; RSV in HeLa cells, MTT, seven days after infection; pEC50 = -log of EC50 in molar units; read-out: Activity (converted)
row,Structure (SMILES),EC50 [nM]
1,"Cc1ccc(O)c(Cn2c(N)nc3ccc(CNc4cccc(OC(F)(F)F)c4)cc32)n1 [Compound 4, 2-{2-Amino-6-[(3-trifluoromethoxyphenylamino)-methyl]-benzoimidazol-1-ylmethyl}-6-methyl-pyridin-3-ol]",2.51
2,"CC(=O)O.Cc1ccc(O)c(Cn2c(N)nc3ccc(CNc4ccccc4C)cc32)n1 [Compound 8, 2-[2-Amino-6-(o-tolylamino-methyl)-benzoimidazol-1-ylmethyl]-6-methyl-pyridin-3-ol acetic acid salt]",3.16
3,"Cc1ccc(CCCO)c(NCc2ccc3nc(N)n(Cc4nc(C)ccc4O)c3c2)c1 [Compound 90, 2-(2-amino-6-{[2-(3-hydroxy-propyl)-5-methyl-phenylamino]-methyl}-benzimidazol-1-ylmethyl)-6-methylpyridin-3-ol]",0.0316

# Same assay, conditions: human respiratory syncytial virus, 168 h; Table 3; RSV in HeLa cells, MTT, seven days after infection; pEC50 = -log of EC50 in molar units; read-out: Activity (converted)
row,Structure (SMILES),EC50 [nM]
1,"Cc1cccc(N(CCO)Cc2ccc3nc(N)n(Cc4nc(C)ccc4O)c3c2)c1 [Compound 129, 2-(2-amino-6-{[(2-hydroxy-ethyl)-m-tolyl-amino]-methyl}-benzoimidazol-1-ylmethyl)-6-methyl-pyridin-3-ol]",0.501
2,"Cc1cccc(N(CCN)Cc2ccc3nc(N)n(Cc4nc(C)ccc4O)c3c2)c1.Cl [Compound 131, 2-(2-amino-6-{[(2-amino-ethyl)-m-tolyl-amino]-methyl}-benzoimidazol-1-ylmethyl)-6-methyl-pyridin-3-ol HCl salt]",3.98
3,"Cc1ccc(O)c(Cn2c(N)nc3ccc(CN(CCC(N)=O)c4cccc(Br)c4)cc32)n1 [Compound 137, 3-[[2-Amino-3-(3-hydroxy-6-methyl-pyridin-2-ylmethyl)-3H-benzoimidazol-5-ylmethyl]-(3-bromo-phenyl)-amino]-propionamide]",0.251
4,"Cc1ccc(O)c(Cn2c(N)nc3ccc(CN(CCCCO)c4cccc(Br)c4)cc32)n1 [Compound 139, 2-(2-Amino-6-{[(3-bromo-phenyl)-(4-hydroxy-butyl)-amino]-methyl}-benzoimidazol-1-ylmethyl)-6-methyl-pyridin-3-ol]",0.398
5,"Cc1ccc(O)c(Cn2c(N)nc3ccc(CN(CCN4CCOCC4)c4ccccc4CCO)cc32)n1 [Compound 160, 2-(2-Amino-6-{[[2-(2-hydroxy-ethyl)-phenyl]-(2-morpholin-4-yl-ethyl)-amino]-methyl}-benzoimidazol-1-ylmethyl)-6-methyl-pyridin-3-ol]",7.94

# Same assay, conditions: human respiratory syncytial virus, 168 h; table of compound 128 (scheme E); RSV in HeLa cells, MTT, seven days after infection; read-out: Activity category (converted)
row,Structure (SMILES),EC50 [nM]
1,Cc1ccc(CCCO)c(NCc2ccc3nc(N)n(Cc4nc(C)ccc4OCc4ccccc4)c3c2)c1 [Compound 128],126

# Test system: not given
# Assay: not given
# Conditions: not given
row,melting point [°C],Structure (SMILES)
1,156,"Cc1ccc(O)c(Cn2c(N)nc3ccc(CNc4cccc(OC(F)(F)F)c4)cc32)n1 [Compound 4, 2-{2-Amino-6-[(3-trifluoromethoxyphenylamino)-methyl]-benzoimidazol-1-ylmethyl}-6-methyl-pyridin-3-ol]"
2,120,"CC(=O)O.Cc1ccc(O)c(Cn2c(N)nc3ccc(CNc4ccccc4C)cc32)n1 [Compound 8, 2-[2-Amino-6-(o-tolylamino-methyl)-benzoimidazol-1-ylmethyl]-6-methyl-pyridin-3-ol acetic acid salt]"
3,248,"Cc1ccc(CCCO)c(NCc2ccc3nc(N)n(Cc4nc(C)ccc4O)c3c2)c1 [Compound 90, 2-(2-amino-6-{[2-(3-hydroxy-propyl)-5-methyl-phenylamino]-methyl}-benzimidazol-1-ylmethyl)-6-methylpyridin-3-ol]"
4,129,Cc1ccc(CCCO)c(NCc2ccc3nc(N)n(Cc4nc(C)ccc4OCc4ccccc4)c3c2)c1 [Compound 128]
5,210,"Cc1cccc(N(CCO)Cc2ccc3nc(N)n(Cc4nc(C)ccc4O)c3c2)c1 [Compound 129, 2-(2-amino-6-{[(2-hydroxy-ethyl)-m-tolyl-amino]-methyl}-benzoimidazol-1-ylmethyl)-6-methyl-pyridin-3-ol]"
6,200,"Cc1cccc(N(CCN)Cc2ccc3nc(N)n(Cc4nc(C)ccc4O)c3c2)c1.Cl [Compound 131, 2-(2-amino-6-{[(2-amino-ethyl)-m-tolyl-amino]-methyl}-benzoimidazol-1-ylmethyl)-6-methyl-pyridin-3-ol HCl salt]"
7,245,"Cc1ccc(O)c(Cn2c(N)nc3ccc(CN(CCC(N)=O)c4cccc(Br)c4)cc32)n1 [Compound 137, 3-[[2-Amino-3-(3-hydroxy-6-methyl-pyridin-2-ylmethyl)-3H-benzoimidazol-5-ylmethyl]-(3-bromo-phenyl)-amino]-propionamide]"
8,120,"Cc1ccc(O)c(Cn2c(N)nc3ccc(CN(CCCCO)c4cccc(Br)c4)cc32)n1 [Compound 139, 2-(2-Amino-6-{[(3-bromo-phenyl)-(4-hydroxy-butyl)-amino]-methyl}-benzoimidazol-1-ylmethyl)-6-methyl-pyridin-3-ol]"
9,184,"Cc1ccc(O)c(Cn2c(N)nc3ccc(CN(CCN4CCOCC4)c4ccccc4CCO)cc32)n1 [Compound 160, 2-(2-Amino-6-{[[2-(2-hydroxy-ethyl)-phenyl]-(2-morpholin-4-yl-ethyl)-amino]-methyl}-benzoimidazol-1-ylmethyl)-6-methyl-pyridin-3-ol]"
